Results as given in paper PMC4208851, “Development of Nanoparticles Incorporating a Novel Liposomal Membrane Destabilization Peptide for Efficient Release of Cargos into Cancer Cells” (PLoS ONE, 2014).
Where no end group is shown, it is not given here.

Target: T1, γ-secretase (Homo sapiens, UniProt P49768)
T1 construct: The solubilized membrane preparations of A549 (16.5 µg total protein) were incubated with 100 µM LMDP or LMDP-lipo; endogenous in cells; host or cells: A549 cells, CHAPSO-solubilized membrane fraction
Assay: Cleavage of fluorescence-quenching substrate peptide probe by γ-secretase in solubilized A549 membrane fraction (competitive inhibition / inhibitor test)
Format: biochemical
Method: The membrane fraction was prepared according to previous reports. All procedures were carried out on ice. Cultured HeLa cells, A549 cells, MCF-7 cells and HUEhT-2 cells (about 1×10^8 cells) were pelleted. Cells were resuspended in a buffer containing 20 mM Hepes, pH 7.5, 50 mM KCl, 2 mM EGTA, and protease inhibitor cocktail, Complete Mini (Roche Applied Science), and homogenized using 15 strokes of a Dounce homogenizer with a tight pestle. The cellular homogenates were centrifuged at 800 × g for 10 min and rehomogenized as above. […] The total protein concentration was determined with a BCA Protein Assay Kit (Thermo scientific).
To measure γ-secretase activity, solubilized membrane preparations ([…] total protein) were incubated with eight µM fluorescence-quenching peptide substrate at 37°C overnight and centrifuged at 16,100 × g for 15 min. The fluorescence of supernatants was measured by Plate Infinite M200 (TECAN) with an excitation wavelength of 355 nm and emission wavelength of 440 nm.
To study LMDP cleavage by γ-secretase, the competitive inhibitory effect of LMDP or LMDP-lipo on the cleavage of the peptide substrate (the same as that used in 2.2) was evaluated. […] Then, the fluorescence intensity was measured as described in 2.2. […]

| Molecule | Inhibition of γ-secretase activity (A549 membrane fraction preincubated with DAPT 37°C 30 min, then substrate peptide probe 37°C overnight (Fig. S3)) | IC50 (A549 solubilized membrane 16.5 µg protein, 5 µM peptide substrate, 0-100 µM LMDP, 37°C overnight, fluorescence ex 355/em 440 nm, n = 3, read-out: IC50, competitive inhibition of cleavage of fluorescent substrate peptide probe) |
| --- | --- | --- |
| C[C@H](NC(=O)Cc1cc(F)cc(F)c1)C(=O)N[C@H](C(=O)OC(C)(C)C)c1ccccc1 [DAPT, N-[N-(3,5-Difluorophenacetyl)-L-alanyl]-S-phenylglycine t-butyl ester] | about 60% |  |
| LHLMYVAAAAFVLLFFVGCGVLLSRKRRR [LMDP] |  | 29 µM |
